Assays:
Assay type in all cases: physicochemical
[1] = Cellulose powder staining test; settings: on cellulose powder after stirring with deionized water for one minute
Experimental: Colorant 8 was diluted in water to an absorbtivity value of 33.5 A/g/L; then 0.73 parts was dissolved in 5 parts of methanol to give a stock solution A. One part of this solution was mixed with 10 parts of cellulose microcrystalline powder available from Aldrich. The colored powder was dried in a beaker in a 100° C. oven over 20 minutes with occasional stirring. The dry powder was cooled and stirred with 50 parts deionized water for one minute. The slurry was filtered and the filtrate was collected. The percent retention of color on the cellulose powder was calculated from the ratio of the absorbance of one part stock solution A diluted with 50 parts water and the absorbance of the filtrate solution.
The same procedure was used with a stock solution of 0.73 parts dodecenyl succinic ester acid colorant, Inventive Colorant 9, dissolved in 5 ml of methanol. The percent retention of color was determined in the same manner.

[2] = Lightfastness test (AATCC Test Method 16-1993 Option E), effect of ultraviolet light
Experimental: In order to determine the effect of ultraviolet light on the de-coloration rate over time of the colorant compositions of the present invention, the colorants were subjected to a lightfastness test. The test was performed according to AATCC Test Method 16-1993 Option E. Comparative Colorants 1-4 were also tested.
The results are provided as DE CMC values and represent the color difference from the standard or control, which was white paper. […] This value for each of the time intervals is then divided by the initial DE CMC value and multiplied by 100.

[3] = Test for pH effect on de-coloration: absorbance in aqueous pH buffer solutions
Experimental: Several 1% solutions of colorant were prepared and added to standard aqueous pH buffer solutions available from VWR and Aldrich to give absorbance of less than one. The colorant solution was tested for absorbance using a DU 7 Spectrophotometer.
In general, the pKa value represents the pH value when approximately half of the colorant is converted to its colorless form. […] “Comparative” is indicated as “Comp.”

[4] = ultraviolet light exposure time 0 hours
[5] = ultraviolet light exposure time 0 hours (initial)
[6] = ultraviolet light exposure time 2 hours
[7] = ultraviolet light exposure time 5 hours
[8] = ultraviolet light exposure time 10 hours
[9] = ultraviolet light exposure time 20 hours
[10] = pH value when approximately half of the colorant is converted to its colorless form

Row | Compound | Percent Color Retention [1] | Percent Color Fade [2, 4] | DE CMC value (color difference from white paper) [2, 5] | DE CMC value (color difference from white paper) [2, 6] | Percent Color Fade [2, 6] | DE CMC value (color difference from white paper) [2, 7] | Percent Color Fade [2, 7] | DE CMC value (color difference from white paper) [2, 8] | Percent Color Fade [2, 8] | DE CMC value (color difference from white paper) [2, 9] | Percent Color Fade [2, 9] | Absorbance ([3]; aqueous buffer pH 2) | Absorbance ([3]; aqueous buffer pH 4) | Absorbance ([3]; aqueous buffer pH 6) | Absorbance ([3]; aqueous buffer pH 7) | Absorbance ([3]; aqueous buffer pH 8) | Absorbance ([3]; aqueous buffer pH 9) | Absorbance ([3]; aqueous buffer pH 10) | pKa Value [3, 10] | pKa [3, 10]
1 | 4-Methylphenyl-methyliumylidene-di(4,1-phenyleneamino)N,N-polyethyleneoxy(10), Chloride [Colorant 4] |  | 0% | 50.95 | 41.31 | 18.92% | 38.99 | 23.47% | 37.19 | 27.01% | 30.97 | 39.22% | 0.8881 | 0.8878 | 0.8304 | 0.569 | 0.154 | 0.0244 | 0.0079 | 7.3 | 
2 | 3,4-methylenedioxyphenyl-methyliumylidene-di(4,1-phenyleneamino)N,N-polyethyleneoxy(10), Chloride [Colorant 3] |  | 0% | 75.15 | 36.95 | 50.83% | 34.25 | 54.42% | 33.39 | 55.57% | 29.45 | 60.81% | 0.9589 | 0.955 | 0.9609 | 0.7309 | 0.2375 | 0.0424 | 0.0199 | 7.5 | 
3 | 3-Methoxy-4-Polyethyleneoxide(6)phenyl-methyliumylidene-di(4,1-phenyleneamino)N,N-polyethyleneoxy(10), Chloride [Colorant 5] |  | 0% | 38.47 | 32.17 | 16.38% | 31.67 | 17.68% | 29.83 | 22.46% | 7.15 | 81.42% | 0.8266 | 0.8269 | 0.7735 | 0.5674 | 0.1928 | 0.0527 | 0.0312 | 7.3 | 
4 | Phenyl-methyliumylidene-di(4,1-phenyleneamino)N,N-polyethyleneoxy(10), Chloride [Colorant 1] |  |  |  |  |  |  |  |  |  |  |  | 0.95 | 0.95 | 0.82 | 0.35 | 0.05 | 0.005 | 0.005 | 6.6 | 
5 | CN(C)c1ccc(C(=C2C=CC(=[N+](C)C)C=C2)c2ccccc2)cc1 [Comp. Colorant 4, Basic Green 4, reference compound] |  | 0% | 44.71 | 14.37 | 67.86% | 13.05 | 70.81% | 9.65 | 78.42% | 5.67 | 87.32% | 0.319 | 0.3843 | 0.4546 | 0.2678 | 0.0538 | 0.0361 | 0.0111 |  | 7

Further lines, with some results ahead:

Row | Percent Color Retention [1] | Percent Color Fade [2, 4] | DE CMC value (color difference from white paper) [2, 5] | DE CMC value (color difference from white paper) [2, 6] | Percent Color Fade [2, 6] | DE CMC value (color difference from white paper) [2, 7] | Percent Color Fade [2, 7] | DE CMC value (color difference from white paper) [2, 8] | Percent Color Fade [2, 8] | DE CMC value (color difference from white paper) [2, 9] | Percent Color Fade [2, 9] | Absorbance ([3]; aqueous buffer pH 2) | Absorbance ([3]; aqueous buffer pH 4) | Absorbance ([3]; aqueous buffer pH 6) | Absorbance ([3]; aqueous buffer pH 7) | Absorbance ([3]; aqueous buffer pH 8) | Absorbance ([3]; aqueous buffer pH 9) | Absorbance ([3]; aqueous buffer pH 10) | pKa Value [3, 10] | Compound | pKa [3, 10]
6 | 56% | 0% | 51.09 | 39.83 | 22.04% | 38.01 | 25.60% | 12.29 | 75.94% | 8.95 | 82.48% |  |  |  |  |  |  |  |  | Phenyl-methyliumylidene-di(4,1-phenyleneamino)N,N-polyethyleneoxy(5), Chloride [Colorant 8] | 
7 | 92.6% |  |  |  |  |  |  |  |  |  |  |  |  |  |  |  |  |  |  | Phenyl-methyliumylidene-di(4,1-phenyleneamino)N,N-polyethyleneoxy(5)-tetrakisDodecenylsuccinate acid, inner salt [Colorant 9] | 
8 |  | 0% | 58.19 | 52.89 | 9.11% | 49.83 | 14.37% | 46.51 | 20.07% | 40.21 | 30.90% | 0.764 | 0.7699 | 0.7253 |  | 0.7829 |  | 0.804 | >10 | CCN(Cc1cccc(S(=O)(=O)[O-])c1)c1ccc(C(=C2C=CC(=[N+](CC)Cc3cccc(S(=O)(=O)[O-])c3)C=C2)c2ccccc2S(=O)(=O)[O-])cc1.[Na+].[Na+] [Comp. Colorant 3, Acid Blue 9, reference compound] | 

From US20080113868A1, “Colorant compositions and their use as pH sensitive color indicators” (priority 2006, published 2008)
